Results: patent US20260103474A1, “NOVEL COMPOUNDS FOR THE DIAGNOSIS OF TDP-43 PROTEINOPATHIES” (AC IMMUNE SA, priority 2022, published 2026)

Key:
[1] = molecular target: TDP-43 aggregates (Homo sapiens, UniProt Q13148); test: Micro-autoradiography staining in brain sections from patients with FTD; assay type: binding; set-up: from tissue; host or cells: frozen post-mortem human brain sections (FTLD-TDP type A and type B; non-demented controls in the classical autoradiography); conditions: 120 nM
Protocol: All tissues were collected from donors for or from whom a written informed consent for a brain autopsy and the use of the material and clinical information for research purposes had been obtained by the respective brain banks. All samples were anonymized and coded. Frozen brain tissue blocks with confirmed TDP-43 pathology upon autopsy were processed using a cryotome to generate sections of 10 μm in thickness and mounted on glass slides. Sections were kept at −80° C. until use.
Brain sections were immunostained using a commercially available antibody, specific for phosphorylated serine at amino acid 409/410 (anti-pTDP-43 pS409/410, Biolegend, 829901). Sections were fixed for 15 minutes at 4° C. with 4% formaldehyde (Sigma, 252549) and washed three times for height minutes with 1×PBS (Dulbecco's phosphate buffered saline, Sigma D1408) at room temperature. Next, sections were saturated and permeabilized in blocking buffer (PBS, 10% normal goat serum (NGS), 0.25% Triton X-100) for one hour at room temperature and incubated overnight at 4° C. with primary antibody against pTDP-43 (diluted at 1/500 in PBS, 5% NGS, 0.25% Triton X-100). The following day, sections were washed three times for height minutes with 1×PBS before incubation with a secondary, AlexaFluor633-labeled goat-anti-rat antibody (Invitrogen, A-21094, diluted at 1/500 in PBS) for 45 minutes at room temperature. Following incubation with […] antibodies the sections were washed three times in PBS before being processed further.
For micro-autoradiography, tritiated test compound ([^3H]-Compound 1, [^3H]-Compound 9 or [^3H]-Compound 17 respectively) was incubated on the sections at 120 nM in 50 mM Tris buffer pH 7.4 for 45 minutes at room temperature. Sections were then washed as follows: once in ice-cold 50 mM Tris-HCl pH 7.4 buffer for one minute, twice in ice-cold 70% ethanol for one minute, once in ice-cold 50 mM Tris-HCl pH 7.4 buffer for one minute and finally rinsed briefly in ice-cold distilled water. Sections were subsequently dried for one hour under a stream of air and then exposed to Ilford Nuclear Emulsion Type K5 (Agar Scientific, AGP9281) for ten days at 4° C. in a light-proof slide storage box. The sections were developed by immersing them successively in the following solutions: 1.) Ilford Phenisol Developer (1:5 dilution in H2O, Agar Scientific, AGP9106) for four minutes, 2.) Ilfostop solution (1:20 dilution in H2O, Agar Scientific, AGP9104) for two minutes, 3.) Ilford Hypam Fixer (1:5 dilution in H2O, Agar Scientific, AGP9183) for four minutes and finally rinsed with H2O for 10 minutes.
For image acquisition, sections were mounted using ProLong Gold Antifade reagent (Invitrogen P36930) and imaged on a Panoramic250 Slide Scanner (3DHistech) with a 40× objective capturing brightfield and fluorescent images separately or on a Panoramic Scan II (3DHistech) with a 20× objective. The Visiopharm image analysis software suite was used to align the fluorescent image with the brightfield image.

[2] = molecular target: T1, PD brain-derived a-synuclein aggregates (Homo sapiens, UniProt P37840); test: Micro-radiobinding competition assay against a-syn reference on PD brain-derived insoluble fraction; assay type: binding; conditions: against [3H]-reference a-syn compound
T1 construct: from tissue; host or cells: frozen brain tissue of PD donors, 1% sarkosyl-insoluble pellet
Protocol: The procedure was adapted from the protocol described in Spillantini et al., 1998. Frozen tissue blocks from PD donors were thawed on ice and homogenized using a glass dounce homogenizer. The homogenate was then centrifuged at 11,000×g (12,700 RPM) in an ultracentrifuge (Beckman, XL100K) for 20 minutes at 4° C. using a pre-cooled 70.1 rotor (Beckman, 342184). Pellets were resuspended in extraction buffer [10 mM Tris-HCl pH 7.4, 10% sucrose, […], 1% protease inhibitor (Calbiochem 539131), 1 mM EGTA, 1% phosphatase inhibitor (Sigma P5726 and P0044)] and centrifuged at 15,000×g (14,800 RPM, a 70.1 Ti rotor) for 20 minutes at 4° C. […]
PD brain-derived a-synuclein aggregates and AD brain-derived Tau PHF aggregates were spotted onto microarray slides. […] Quantification of signal was performed by using the image analysis software Beamage (ai4R). Non-specific signal was determined with an excess of non-radiolabelled compound (2 μM) and specific binding was calculated by subtracting the non-specific signal from the total signal. Competition was calculated as percentage, where 0% was defined as the specific binding in the presence of vehicle and 100% as the values obtained in the presence of excess of the non-radiolabelled a-syn reference compound. Ki values were calculated in GraphPad Prism7 by applying a nonlinear regression curve fit using a one site, specific binding model. […]

Sequence of TDP-43 aggregates (Q13148 whole entry): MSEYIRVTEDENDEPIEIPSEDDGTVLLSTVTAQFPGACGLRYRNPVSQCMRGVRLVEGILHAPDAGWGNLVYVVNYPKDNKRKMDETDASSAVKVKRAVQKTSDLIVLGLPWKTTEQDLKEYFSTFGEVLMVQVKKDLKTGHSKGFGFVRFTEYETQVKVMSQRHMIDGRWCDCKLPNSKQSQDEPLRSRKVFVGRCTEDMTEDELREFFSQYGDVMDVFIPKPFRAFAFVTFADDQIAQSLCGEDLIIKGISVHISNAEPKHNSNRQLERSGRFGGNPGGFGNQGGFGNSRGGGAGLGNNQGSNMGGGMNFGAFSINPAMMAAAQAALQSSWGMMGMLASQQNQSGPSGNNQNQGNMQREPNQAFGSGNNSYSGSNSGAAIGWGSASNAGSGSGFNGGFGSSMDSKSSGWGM

Row | Micro-autoradiography silver grain signal versus pTDP-43 immunostaining ([1]; FTLD-TDP type A brain sections) | Micro-autoradiography silver grain signal versus pTDP-43 immunostaining ([1]; FTLD-TDP type B brain sections) | Compound | Ki [2] [nM]
1 | colocalization with pTDP-43 aggregates | same colocalization was observed | [3H]C([3H])(O)C1CCN(c2ccc(-c3nc4c(s3)C(=O)N(c3cccnc3)CC4)c(F)n2)CC1 [[^3H]-Compound 17, 2-(2-fluoro-6-(4-(hydroxymethyl-t2)piperidin-1-yl)pyridin-3-yl)-5-(pyridin-3-yl)-6,7-dihydrothiazolo[5,4-c]pyridin-4(5H)-one] | 
2 | colocalization with pTDP-43 aggregates | same colocalization was observed | [3H]c1cncc(N2CCc3nc(-c4cc([3H])c(N5CC[C@@H](F)C5)nc4F)sc3C2=O)c1 [[^3H]-Compound 1, tritiated 2-[2-fluoro-6-[(3R)-3-fluoropyrrolidin-1-yl]-3-pyridyl]-5-(3-pyridyl)-6,7-dihydrothiazolo[5,4-c]pyridin-4-one] | 
3 |  |  | O=C1c2sc(-c3ccc(N4CC[C@@H](F)C4)nc3F)nc2CCN1c1cccnc1 [Compound 1, 2-[2-fluoro-6-[(3R)-3-fluoropyrrolidin-1-yl]-3-pyridyl]-5-(3-pyridyl)-6,7-dihydrothiazolo[5,4-c]pyridin-4-one] | > 500
